Assay: Bulk density, tapped density and Carr Index (flowability) of raw materials and granules
Description: The Carr Index is calculated by the formula 100×(1-BD/TD) and is used as an indication of the flowability.

**Q.** For `COc1ccc2cc([C@H](C)C(=O)O)ccc2c1` [Naproxen Sodium, naproxen sodium], which “Description (physical characterization of powder)” value is on record?
**A.** very lumpy

Source: US20220280461A1, “SOLID ORAL DOSAGE FORM COMPRISING NAPROXEN AND VITAMIN B12” (DSM IP ASSETS B.V., priority 2019, published 2022)
